Source: patent US5750523A, “Pyridazinone derivatives” (Nissan Chemical Industries, Ltd., priority 1994, dated 1998)
Structures can show the parent of a compound that is named as a salt. Where two headings read alike, the source gives them in different places.

Experiments:
[1] = system: Rabbit PRP (platelet aggregation); assay: Antiplatelet aggregation effect, rabbit platelet rich plasma (PRP); assay type: cell-based, male Japanese white rabbits; conditions: 37° C., 2 minutes incubation, Table III
Method: (§1) Blood was collected from the abdominal aortae of male Wister rats (weight: 200 to 300 g) or male Japanese white rabbits (weight: 1.8 to 2.5 kg) into a syringe containing 1/10 volume 3.8% sodium citrate. The blood thus obtained was centrifuged at 200×g for 7 minutes at room temperature to obtain platelet rich plasma (PRP). Furthermore, the residue was centrifuged at 2000×g for 10 minutes to obtain platelet poor plasma (PPP). The measurement was effected by diluting PRP and PPP to 300,000/mm^3. PRP and PPP were put in cuvettes, and the measurement range of transmittance was adjusted to 0% in the case of PRP and to 100% in the case of PPP. Thereafter, a test sample drug dissolved in 100% dimethyl sulfoxide (DMSO) was added to PRP (the final concentration of DMSO: 0.25%). After incubation at 37° C. and 900 rpm for 2 minutes, an aggregating agent was added to measure an aggregation curve. The antiplatelet aggregation effect of the test sample drug was expressed by a concentration, IC50 (μM), at which the aggregation of control sample was 50% inhibited. The aggregating agents ADP and collagen were used at minimum concentrations (ADP: 5 to 10 μM: collagen : 2.5 to 10 μg/ml) which caused maximum aggregation. The measurement of platelet aggregation was carried out by using NBS HEMA TRACER 601.
(§2) Tables II and III show antiplatelet aggregation effects of test compounds evaluated as IC50 values (μM).
As a comparative compound, the following compound disclosed in reference (d) was used. [drawing 20]

[2] = system: Rat PRP (platelet aggregation); assay: Antiplatelet aggregation effect, rat platelet rich plasma (PRP); assay type: cell-based, male Wister rats; conditions: 37° C., 2 minutes incubation, Table II
Method: as §1, §2

[3] = system: rabbit thoracic aorta ring specimen; assay: Vasodilation effect, relaxation of phenylephrine contraction of rabbit thoracic aorta ring; conditions: Oryctolagus cuniculus; contraction by phenylephrine 10^-5 M; cumulative administration from 3×10^-9 M; papaverine hydrochloride 10^-4 M = 100%; Table IV
Method: By using a rabbit thoracic aorta ring specimen, the relaxation effect of a test sample drug on contraction by phenylephrine (10^-5 M) was evaluated. A test sample drug was administered cumulatively from a concentration of 3×10^-9 M, after the contraction became stable. The results were expressed on the basis that the relaxation effect of papaverine hydrochloride (10^-4 M) was 100%.
The comparative compound was the same as in Test Example 1.

[4] = Oryctolagus cuniculus, Platelet, 2 min, aggregating agent ADP 5 to 10 μM, read-out: Rabbit PRP IC50, ADP
[5] = Oryctolagus cuniculus, Platelet, 2 min, aggregating agent collagen 2.5 to 10 μg/ml, read-out: Rabbit PRP IC50, Collagen
[6] = Rattus norvegicus, Platelet, 2 min, aggregating agent ADP 5 to 10 μM, read-out: Rat PRP IC50, ADP

Row | Compound | IC50 [1, 4] [µM] | IC50 [1, 5] [µM] | IC50 [2, 6] [µM] | EC50 [3] [µM] | other results
1 | O=c1[nH]nc(OCC[C@@H](O)c2ccc(Cl)cc2)c(NCc2cccnc2)c1Br [Compound No. 93, 4-bromo-6-[(3R)-3-(4-chlorophenyl)-3-hydroxylpropyloxy]-5-(3-pyridylylmethylamino)-3(2H)pyridazinone hydrochloride] | 0.047 | 0.0097 | – | – | –
2 | O=c1[nH]nc(OCCC(O)c2ccc(Cl)cc2)c(NCc2cccnc2)c1Br (centres unmarked) [Compound No. 1, 4-bromo-6-[3-(4-chlorophenyl)-3-hydroxypropyloxy]-5-(3-pyridylylmethylamino)-3(2H)pyridazinone] | 0.05 | 0.01 | 0.23 | 1.3 | IC50 ([2]; aggregating agent collagen 2.5 to 10 μg/ml, read-out: Rat PRP IC50, Collagen): 0.099 µM
3 | O=c1[nH]nc(OCCC(O)c2ccc(Cl)cc2)c(NCc2cccnc2)c1Br (centres unmarked) [Compound No. 65, 4-bromo-6-[3-(4-chlorophenyl)-3-hydroxypropyloxy]-5-(3-pyridylylmethylamino)-3(2H)pyridazinone hydrochloride] | – | – | – | – | IC50 ([1]; aggregating agent ADP 5 to 10 μM, hydrochloride, read-out: Rabbit PRP IC50, ADP): 0.053 µM; IC50 ([1]; aggregating agent collagen 2.5 to 10 μg/ml, hydrochloride, read-out: Rabbit PRP IC50, Collagen): 0.019 µM; IC50 ([2]; aggregating agent ADP 5 to 10 μM, hydrochloride, read-out: Rat PRP IC50, ADP): 0.21 µM; IC50 ([2]; aggregating agent collagen 2.5 to 10 μg/ml, hydrochloride, read-out: Rat PRP IC50, Collagen): 0.22 µM
4 | O=C1CCc2cc(OCCCCc3nnnn3C3CCCCC3)ccc2N1 [Cilostazol, reference compound] | 15 | 2.4 | – | – | –
5 | O=c1[nH]nc(OCCCc2ccc(Cl)cc2)c(NCc2cccnc2)c1Br [Comparative Compound, reference compound] | 0.081 | 0.017 | – | 0.4 | –
6 | COc1ccc(CNc2c(OCCC(O)c3ccc(Cl)cc3)n[nH]c(=O)c2Br)cc1OC (centres unmarked) [Compound No. 2, 4-bromo-6-[3-(4-chlorophenyl)-3-hydroxypropyloxy]-5-(3,4-dimethoxybenzylamino)-3(2H)pyridazinone] | 0.041 | 0.02 | 0.072 | – | IC50 ([2]; Rattus norvegicus, Platelet, 2 min, aggregating agent collagen 2.5 to 10 μg/ml, read-out: Rat PRP IC50, Collagen): 0.19 µM
